PubChem BioAssay AID248 (DTP/NCI, 2004)
Inconclusive results and toxic doses are left out. Peptide text beside a SMILES is read from it.

System: L1210 leukemia ip in BDF1 mice, survival T/C
Experiment: NCI In Vivo Anticancer Drug Screen. Data for tumor model L1210 Leukemia (intraperitoneal) in B6D2F1 (BDF1) mice
Settings: endpoint: mean survival time, higher = longer survival
Outline: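 Transplantable tumor model; survival measured in treated vs vehicle control mice. Value = treated/control.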

[1] = dose: 100.0 mg/kg/injection, schedule: Q01DX009 (ip), vehicle: saline with Tween-80
[2] = dose: 200.0 mg/kg/injection, schedule: Q01DX009 (ip), vehicle: saline with Tween-80
[3] = dose: 400.0 mg/kg/injection, schedule: Q01DX009 (ip), vehicle: saline with Tween-80
[4] = dose: 100.0 mg/kg/injection, schedule: Q04DX003 (ip), vehicle: saline with Tween-80
[5] = dose: 200.0 mg/kg/injection, schedule: Q04DX003 (ip), vehicle: saline with Tween-80
[6] = dose: 400.0 mg/kg/injection, schedule: Q04DX003 (ip), vehicle: saline with Tween-80
[7] = dose: 100.0 mg/kg/injection, schedule: Q04DX002 (ip), vehicle: Klucel (hydroxypropylcellulose) (HPC)
[8] = dose: 100.0 mg/kg/injection, schedule: Q01DX001 (ip), vehicle: Klucel (hydroxypropylcellulose) (HPC)
[9] = dose: 200.0 mg/kg/injection, schedule: Q01DX001 (ip), vehicle: Klucel (hydroxypropylcellulose) (HPC)
[10] = dose: 400.0 mg/kg/injection, schedule: Q01DX001 (ip), vehicle: Klucel (hydroxypropylcellulose) (HPC)
[11] = dose: 100.0 mg/kg/injection, schedule: Q01DX009 (ip), vehicle: Klucel (hydroxypropylcellulose) (HPC)
[12] = dose: 100.0 mg/kg/injection, schedule: Q04DX003 (ip), vehicle: Klucel (hydroxypropylcellulose) (HPC)
[13] = dose: 200.0 mg/kg/injection, schedule: Q04DX003 (ip), vehicle: Klucel (hydroxypropylcellulose) (HPC)
[14] = dose: 200.0 mg/kg/injection, schedule: Q01DX009 (ip), vehicle: Klucel (hydroxypropylcellulose) (HPC)
[15] = dose: 200.0 mg/kg/injection, schedule: Q04DX002 (ip), vehicle: Klucel (hydroxypropylcellulose) (HPC)
[16] = dose: 200.0 mg/kg/injection, schedule: Q01DX009 (ip), vehicle: gum acacia

SMILES: C=CCN(CC=C)C(=O)Nc1ccc(Cl)c(C(F)(F)F)c1
- T/C [1]: 97 % of control
- T/C [2]: 105 % of control
- T/C [3]: 110 % of control

SMILES: Cc1ccc(S(=O)(=O)Nc2ccccc2SSc2ccccc2NS(=O)(=O)c2ccc(C)cc2)cc1
- T/C [1]: 97 % of control
- T/C [4]: 101 % of control
- T/C [2]: 97 % of control
- T/C [5]: 97 % of control
- T/C [3]: 90 % of control
- T/C [6]: 95 % of control

SMILES: NC(CCC(=O)O)C(=O)NC(CC(=O)O)C(=O)O (stereo not drawn) (H-Glu-Asp-OH; configuration not given here)
- T/C (dose: 12.5 mg/kg/injection, schedule: Q04DX002 (ip), vehicle: Klucel (hydroxypropylcellulose) (HPC)): 90 % of control
- T/C (dose: 25.0 mg/kg/injection, schedule: Q04DX002 (ip), vehicle: Klucel (hydroxypropylcellulose) (HPC)): 105 % of control
- T/C (dose: 50.0 mg/kg/injection, schedule: Q04DX002 (ip), vehicle: Klucel (hydroxypropylcellulose) (HPC)): 98 % of control
- T/C [7]: 94 % of control

SMILES: Oc1ccc(O)c(CCCc2cc(O)ccc2O)c1
- T/C [4]: 98 % of control
- T/C [5]: 98 % of control
- T/C [6]: 90 % of control

SMILES: OCCN1CCSC1=S
- T/C [1]: 87 % of control
- T/C [2]: 88 % of control

SMILES: COc1cccc2c1C(=O)c1c(O)c3c(c(O)c1C2=O)CC(O)(/C(C)=N/NC(=O)c1ccccc1)CC3OC1CC(N)C(O)C(C)O1 (configuration not stated)
- T/C (dose: 200.0 mg/kg/injection, schedule: Q04DX003 (ip), vehicle: water): 124 % of control

SMILES: c1ccc(-c2nc3ccccn3n2)cc1
- T/C [8]: 101 % of control
- T/C [9]: 95 % of control
- T/C [10]: 103 % of control

SMILES: O=C(c1ccccc1)C1C(c2ccccc2)N1Cc1ccccc1 (configuration not stated)
- T/C (dose: 50.0 mg/kg/injection, schedule: Q04DX003 (ip), vehicle: Klucel (hydroxypropylcellulose) (HPC)): 102 % of control
- T/C [8]: 87 % of control
- T/C [11]: 100 % of control
- T/C [12]: 98 % of control
- T/C [9]: 88 % of control
- T/C [13]: 98 % of control
- T/C [10]: 95 % of control

SMILES: CCCCCCCC/C=C\CCCCCCCC(=O)OCCCCCCCCCCCCCCCC
- T/C [11]: 104 % of control
- T/C [14]: 96 % of control
- T/C (dose: 400.0 mg/kg/injection, schedule: Q01DX009 (ip), vehicle: Klucel (hydroxypropylcellulose) (HPC)): 93 % of control

SMILES: Cc1ccc(S(=O)(=O)Nc2ccc3ncccc3c2)cc1
- T/C (dose: 100.0 mg/kg/injection, schedule: Q01DX001 (ip), vehicle: saline): 103 % of control
- T/C (dose: 200.0 mg/kg/injection, schedule: Q01DX001 (ip), vehicle: saline): 102 % of control
- T/C (dose: 400.0 mg/kg/injection, schedule: Q01DX001 (ip), vehicle: saline): 96 % of control

SMILES: CN1CC(C)(C)C(O)c2ccccc21 (configuration not stated)
- T/C (dose: 25.0 mg/kg/injection, schedule: Q04DX002 (ip), vehicle: other): 100 % of control
- T/C (dose: 50.0 mg/kg/injection, schedule: Q04DX002 (ip), vehicle: other): 90 % of control
- T/C (dose: 100.0 mg/kg/injection, schedule: Q04DX002 (ip), vehicle: other): 107 % of control

SMILES: CCC1NCCc2cc(OC)c(O)cc21 (configuration not stated)
- T/C (dose: 75.0 mg/kg/injection, schedule: Q01DX001 (ip), vehicle: saline): 106 % of control
- T/C (dose: 150.0 mg/kg/injection, schedule: Q01DX001 (ip), vehicle: saline): 100 % of control

SMILES: C#CC1(O)CCC2C3CCc4cc(OC)ccc4C3CCC21C (configuration not stated)
- T/C (dose: 10.0 mg/kg/injection, schedule: Q01DX009 (sc), vehicle: saline with Tween-80): 102 % of control
- T/C (dose: 100.0 mg/kg/injection, schedule: Q04DX003 (sc), vehicle: olive oil, sesame oil, peanut oil): 102 % of control
- T/C (dose: 200.0 mg/kg/injection, schedule: Q01DX009 (sc), vehicle: saline with Tween-80): 98 % of control
- T/C (dose: 200.0 mg/kg/injection, schedule: Q04DX003 (sc), vehicle: olive oil, sesame oil, peanut oil): 102 % of control
- T/C (dose: 400.0 mg/kg/injection, schedule: Q01DX009 (sc), vehicle: saline with Tween-80): 96 % of control
- T/C (dose: 400.0 mg/kg/injection, schedule: Q04DX003 (sc), vehicle: olive oil, sesame oil, peanut oil): 100 % of control

SMILES: Nc1cc2c3c(cccc3c1Br)C(=O)NC2=O
- T/C [7]: 121 % of control
- T/C [15]: 96 % of control
- T/C (dose: 400.0 mg/kg/injection, schedule: Q04DX002 (ip), vehicle: Klucel (hydroxypropylcellulose) (HPC)): 107 % of control

SMILES: NC(CCl)=NCc1ccccn1
- T/C (dose: 100.0 mg/kg/injection, schedule: Q04DX002 (ip), vehicle: saline): 96 % of control

SMILES: c1coc(CNc2cc(NCc3ccco3)ncn2)c1
- T/C [11]: 98 % of control
- T/C [14]: 95 % of control

SMILES: CCCCCCCCN(C=O)CCCCCCCC
- T/C (dose: 100.0 mg/kg/injection, schedule: Q04DX002 (ip), vehicle: saline with Tween-80): 98 % of control

SMILES: C[n+]1ccc(NC(=O)c2ccc(NC(=O)c3ccc(C(=O)Nc4ccc(C(=O)Nc5cc[n+](C)cc5)cc4)cc3)cc2)cc1
- T/C (dose: 62.0 mg/kg/injection, schedule: Q01DX Z (ip), vehicle: carboxymethylcellulose (CMC)): 103 % of control
- T/C (dose: 100.0 mg/kg/injection, schedule: Q01DX001 (ip), vehicle: other): 97 % of control
- T/C [1]: 105 % of control
- T/C (dose: 100.0 mg/kg/injection, schedule: Q04DX003 (ip), vehicle: other): 101 % of control
- T/C (dose: 125.0 mg/kg/injection, schedule: Q01DX Z (ip), vehicle: carboxymethylcellulose (CMC)): 118 % of control
- T/C (dose: 200.0 mg/kg/injection, schedule: Q01DX001 (ip), vehicle: other): 104 % of control
- T/C [2]: 115 % of control
- T/C (dose: 200.0 mg/kg/injection, schedule: Q04DX003 (ip), vehicle: other): 103 % of control
- T/C (dose: 400.0 mg/kg/injection, schedule: Q01DX001 (ip), vehicle: other): 103 % of control
- T/C [3]: 114 % of control
- T/C (dose: 400.0 mg/kg/injection, schedule: Q04DX003 (ip), vehicle: other): 98 % of control
- T/C (dose: 500.0 mg/kg/injection, schedule: Q01DX Z (ip), vehicle: carboxymethylcellulose (CMC)): 152 % of control

SMILES: C[Si](C)(C#CC1(O)CCCCC1)CCl
- T/C [12]: 107 % of control
- T/C [13]: 106 % of control
- T/C (dose: 400.0 mg/kg/injection, schedule: Q04DX003 (ip), vehicle: Klucel (hydroxypropylcellulose) (HPC)): 103 % of control

SMILES: COc1cccc(C2NC(=S)N3C(c4cccc(OC)c4)NC(=S)N23)c1 (configuration not stated)
- T/C (dose: 100.0 mg/kg/injection, schedule: Q01DX009 (ip), vehicle: gum acacia): 108 % of control
- T/C (dose: 100.0 mg/kg/injection, schedule: Q04DX003 (ip), vehicle: gum acacia): 88 % of control
- T/C [16]: 99 % of control
- T/C (dose: 200.0 mg/kg/injection, schedule: Q04DX003 (ip), vehicle: gum acacia): 100 % of control
- T/C (dose: 400.0 mg/kg/injection, schedule: Q01DX009 (ip), vehicle: gum acacia): 93 % of control
- T/C (dose: 400.0 mg/kg/injection, schedule: Q04DX003 (ip), vehicle: gum acacia): 95 % of control

SMILES: O=C(Nc1ccccc1)Oc1c(Cl)c(Cl)c(Cl)c(Cl)c1Cl
- T/C [7]: 98 % of control
- T/C [15]: 104 % of control

SMILES: NC(=O)c1cc[n+](-c2ccc([N+](=O)[O-])cc2[N+](=O)[O-])cc1
- T/C (dose: 100.0 mg/kg/injection, schedule: Q04DX003 (ip), vehicle: saline): 102 % of control
- T/C (dose: 200.0 mg/kg/injection, schedule: Q04DX003 (ip), vehicle: saline): 103 % of control

SMILES: COc1ccc([N+](=O)[O-])cc1NC(=O)c1ccc2c(c1)C(=O)OC2=O
- T/C (dose: 6.25 mg/kg/injection, schedule: Q01DX009 (ip), vehicle: gum acacia): 93 % of control
- T/C (dose: 12.5 mg/kg/injection, schedule: Q01DX009 (ip), vehicle: gum acacia): 88 % of control
- T/C (dose: 25.0 mg/kg/injection, schedule: Q01DX009 (ip), vehicle: gum acacia): 87 % of control
- T/C (dose: 50.0 mg/kg/injection, schedule: Q01DX009 (ip), vehicle: gum acacia): 86 % of control
- T/C [16]: 88 % of control

SMILES: CCCCN(Cl)CCCC
- T/C (dose: 100.0 mg/kg/injection, schedule: Q04DX002 (ip), vehicle: saline + alcohol): 101 % of control

SMILES: O=c1[nH]c(C(F)(F)F)c(Cc2ccccc2)c(=O)[nH]1
- T/C (dose: 100.0 mg/kg/injection, schedule: Q01DX001 (ip), vehicle: gum acacia): 95 % of control
- T/C (dose: 200.0 mg/kg/injection, schedule: Q01DX001 (ip), vehicle: gum acacia): 107 % of control

SMILES: COc1cc(CC(=O)O)c(OC)cc1CC(=O)O
- T/C [1]: 101 % of control
- T/C [4]: 93 % of control
- T/C [2]: 99 % of control
- T/C [5]: 96 % of control
- T/C [3]: 94 % of control
- T/C [6]: 94 % of control
